Results on 20 compounds are retold here after patent publication US5972939A, “Cyclopentene derivatives useful as antagonists of the motilin receptor” (Ortho-McNeil Pharmaceutical, Inc., priority 1998, dated 1999).

Like-named read-outs stand apart in the source and are kept apart here.

For experiment [1], the system named is motilin receptor. The settings on record: Weber et al. 1993; cited from earlier work.
Experiment [2] relates to rabbit duodenum smooth muscle (motilin and erythromycin induced contractions). In words: inhibition of motilin (porcine) induced contractions in rabbit duodenum smooth muscle. The format is cell-based. The settings on record: for IC50: rabbit duodenum strips, porcine motilin; for inhibition at 2 µM: @ 2 μM (2.0 μM). How it is done:
Select compounds of the invention were evaluated for their ability to inhibit motilin and erythromycin induced contractions in the rabbit duodenum smooth muscle. Rabbits were fasted 24-48 h and euthanized. The venral midline incision was made approximately 7.5 cm above the umbilicus upto the xyphoid process, exposing the upper peritoneal cavity. The first 8 cm. of the duodenum starting at the pyloric valve was quickly removed and placed in Krebs solution containing NaCl, ([…]), KCl (4.7 mM), MgSO4 *7 H2 O (1.2 mM), CaCl2 *2 H2 O (2.4 mM), KH2 PO4 (1 mM), D-glucose (10 mM), and NaHCO3 (24 mM). The lumen was flushed with Krebs and excess tissue was removed. The tissue was cut lengthwise, splayed open with the longitudinal muscle layer facing up, and the longitudinal muscle layer was released away from the circular muscle and cut into 3×30 mm strips. A pre-tied 4-0 silk ligature with a loop was placed at the middle of the strip and the strip was folded over the loop so the strip was half its original length. The tissues were mounted in a 10 mL tissue bath (Radnotti Glass Technology, Inc., Monrovia, Calif.) containing Krebs solution gassed with 95% O2 5% CO2 at 37° C. […] The tissues were allowed to equilibrate for 60-90 min with 2-3 wash cycles. The tissues were equilibrated with two initial contractions induced by a concentration of acetylcholine (1×10^-4 M) that produced a maximal contraction (0.1 mM), with the highest taken as 100% maximall contraction of that tissue. Base line and response levels are expressed as grams tension developed and as a percent of the response to acetylcholine. The test compounds were dissolved in DMSO (2 mM/100% DMSO) and applied to the prepared strips 5-15 minutes prior to the addition of porcine motilin. After addition, the tension is constantly monitored over 5 min and the maximum tension is recorded. The percent contraction was measured at four ascending concentrations and where appropriate IC50s were determined.

The target of experiment [3] is T1, motilin receptors located on the colon of mature rabbits (Oryctolagus cuniculus, UniProt G1T803).
T1 construct: The colon from mature New Zealand rabbits was removed, dissected free from the mucosa and serosa layers, and diced into small pieces; from tissue; host or cells: colon smooth muscle of mature New Zealand rabbits, crude membrane homogenate
T1 sequence (G1T803 1-400): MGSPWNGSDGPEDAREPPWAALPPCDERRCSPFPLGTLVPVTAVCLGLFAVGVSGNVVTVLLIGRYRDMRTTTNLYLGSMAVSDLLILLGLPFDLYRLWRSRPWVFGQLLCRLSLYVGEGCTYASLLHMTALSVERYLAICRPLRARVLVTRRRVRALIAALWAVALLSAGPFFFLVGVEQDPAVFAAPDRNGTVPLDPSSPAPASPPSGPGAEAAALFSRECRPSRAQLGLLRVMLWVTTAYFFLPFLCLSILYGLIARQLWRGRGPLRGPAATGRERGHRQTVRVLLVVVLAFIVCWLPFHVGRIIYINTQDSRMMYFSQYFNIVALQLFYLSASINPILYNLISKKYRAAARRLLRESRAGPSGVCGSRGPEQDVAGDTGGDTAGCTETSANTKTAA
Nature of the experiment: competition with radiolabeled (125I) porcine motilin for the motilin receptors of rabbit colon. The experiment is classed as binding. The settings on record: for IC50: rabbit colon, 125I motilin. As to the method: The compounds of the invention were tested for their ability to compete with radiolabeled motilin (porcine) for the motilin receptors located on the colon of mature rabbits. The colon from mature New Zealand rabbits was removed, dissected free from the mucosa and serosa layers, and diced into small pieces. […] The homogenate was centrifuged at 1000×g for 15 min. and the supernatant discarded. The pellet was washed twice before being suspended in homogenizing buffer. This crude homogenate is then passed first through a 19 gauge needle then a 23 gauge needle to further suspend the material and stored as -80° C. […] After 30 min, at 30° C., the material was cooled on ice and centrifuged at 13,000×g for 1 minute. The pellet was washed with 1 mL 0.9% saline and centrifuged at 13,000×g for 15 seconds. The pellet was washed again with cold saline and the supernatant was removed. The pellet was counted in the gamma counter to determine the percentage of […] motilin and thereby the percent inhibition of the test compound. IC50s were determined for some compounds by standard techniques.

Experiment [4] deals with smooth muscle in the stomach tissue of dogs, rabbits, and humans and in the colon of rabbits. The settings on record: cited from earlier work.
The test system of experiment [5] is humans. To be noted: intravenous, Christofides et al. 1979; cited from earlier work.
Where [6] appears, read: Oryctolagus cuniculus, read-out: IC50.

`CC[C@H]1OC(=O)[C@H](C)[C@@H](O[C@H]2C[C@@](C)(OC)[C@@H](O)[C@H](C)O2)[C@H](C)[C@@H](O[C@@H]2O[C@H](C)C[C@H](N(C)C)[C@H]2O)[C@](C)(O)C[C@@H](C)C(=O)[C@H](C)[C@@H](O)[C@]1(C)O` [erythromycin]: the “biological responses compared with motilin” value in experiment [1] is given as “elicits biological responses that are comparable to motilin itself”.

With `CCN(CC)CCN(CC1=CC(Cc2ccccc2)(NC(=O)C(Cl)(Cl)Cl)CC1)c1cccc(OCCN2CCCCC2)c1` (stereo not drawn) [Compound 52], 10 µM produced 70% inhibition in experiment [2] (Oryctolagus cuniculus). Moreover, the IC50 in experiment [3] (read-out: IC50 (unit inferred)) worked out at 600 nM.

Consider `O=C(Nc1ccccc1)N(CC1=CC(Cc2ccc(F)cc2)(NC(=O)C(Cl)(Cl)Cl)CC1)c1cccc(OCCN2CCOCC2)c1` (stereo not drawn) [Compound 67], for which the inhibition at 1 µM in experiment [2] (Oryctolagus cuniculus) was 25.7%. Besides, the inhibition at 0.25 µM in experiment [3] (@ 0.25 μM) came out at 34%.

As to `COc1ccc(C(=O)N(CC2=CC(Cc3ccccc3)(NC(=O)C(Cl)(Cl)Cl)CC2)c2cccc(OCCN3CCOCC3)c2)cc1` (stereo not drawn) [Compound 60], the inhibition at 10 µM in experiment [2] (Oryctolagus cuniculus) is 49%. In addition, in experiment [3] (read-out: IC50), the IC50 turned out to be 90 nM.

With `O=C(NC1(Cc2ccccc2)C=C(CN(CCN2CCOCC2)Cc2cccc(OCCN3CCOCC3)c2)CC1)C(Cl)(Cl)Cl` (stereo not drawn) [Compound 57], the IC50 in experiment [2] (Oryctolagus cuniculus, read-out: IC50 (unit inferred)) amounted to 1060 nM; in experiment [3] (read-out: IC50 (unit inferred)), 700 nM.

As for `CCN(CC)CCN(CC1=CC(Cc2ccccc2)(NC(=O)C(Cl)(Cl)Cl)CC1)c1cccc(OCCCN2CCCCC2)c1` (stereo not drawn) [Compound 54], in experiment [2] (Oryctolagus cuniculus, @ 5 μM), the inhibition at 5 µM was 24%. For the same compound, the IC50 in experiment [3] (read-out: IC50 (unit inferred)) is 900 nM.

`O=C(c1ccc(F)c(F)c1)N(CC1=CC(Cc2ccccc2)(NC(=O)C(Cl)(Cl)Cl)CC1)c1cccc(OCCN2CCOCC2)c1` (stereo not drawn) [Compound 62] displayed an inhibition at 1 µM in experiment [2] (Oryctolagus cuniculus) of 65%. Also, the IC50 in experiment [3] (read-out: IC50) was 50 nM.

For `O=C(Nc1ccccc1)N(CC1=CC(Cc2cccc(Cl)c2)(NC(=O)C(Cl)(Cl)Cl)CC1)c1cccc(OCCN2CCOCC2)c1` (stereo not drawn) [Compound 68], testing at 1 µM in experiment [2] (Oryctolagus cuniculus) gave an inhibition of 51%. The inhibition at 0.1 µM in experiment [3] (@ 0.1 μM) turned out to be 70%.

Regarding `O=C(Nc1ccccc1)N(CC1=CC(Cc2ccccc2)(NC(=O)C(Cl)(Cl)Cl)CC1)c1cccc(OCCN2CCOCC2)c1` (stereo not drawn) [Compound 9, 3-Benzyl-3-trichloroacetylamino-1-(N-phenylaminocarbonyl)-N-[(3-(2-morpholinoethoxy)phenyl)amino]methylcyclopentene], the values for the IC50 in experiment [2] (read-out: IC50) and in experiment [3] (read-out: IC50) were 890 nM and > 300 nM, respectively.

`CCN(CC)CCN(CC1=CC(Cc2ccccc2)(NC(=O)C(Cl)(Cl)Cl)CC1)c1cccc(O)c1` (stereo not drawn) [Compound 50] returned an inhibition at 20 µM in experiment [2] (Oryctolagus cuniculus, @ 20 μM) of 98%. For the same compound, in experiment [3] (@ 10 μM), 10 µM produced 81% inhibition.

As to `CC[C@H](C)[C@H](NC(=O)[C@@H]1CCCN1C(=O)[C@@H](NC(=O)[C@@H](N)Cc1ccccc1)C(C)C)C(=O)N[C@@H](Cc1ccccc1)C(=O)N[C@H](C(=O)N[C@@H](Cc1ccc(O)cc1)C(=O)NCC(=O)N[C@@H](CCC(=O)O)C(=O)N[C@@H](CC(C)C)C(=O)N[C@@H](CCC(N)=O)C(=O)N[C@@H](CCCNC(=N)N)C(=O)N[C@@H](CCSC)C(=O)N[C@@H](CCC(N)=O)C(=O)N[C@@H](CCC(=O)O)C(=O)N[C@@H](CCCCN)C(=O)N[C@@H](CCC(=O)O)C(=O)N[C@@H](CCCNC(=N)N)C(=O)N[C@@H](CC(N)=O)C(=O)N[C@@H](CCCCN)C(=O)NCC(=O)N[C@@H](CCC(N)=O)C(=O)O)[C@@H](C)O` [motilin], in experiment [4], the smooth muscle contractions entry is on record as “induces smooth muscle contractions”. The “gastric emptying and gut hormone release” value in experiment [5] is “increase gastric emptying and gut hormone release”.

As to `O=C(c1ccccc1)N(CC1=CC(Cc2ccccc2)(NC(=O)C(Cl)(Cl)Cl)CC1)c1cccc(OCCN2CCOCC2)c1` (stereo not drawn) [Compound 10, 3-Benzyl-3-trichloroacetylamino-1-(N-phenylcarbonyl)-N-[(3-(2-morpholinoethoxy)phenyl)amino]methylcyclopentene], the IC50 in experiment [2] (setting [6]) worked out at 393 nM; in experiment [3] (read-out: IC50 (unit inferred)), 300 nM.

Regarding `O=C(c1ccc(Br)cc1)N(CC1=CC(Cc2ccccc2)(NC(=O)C(Cl)(Cl)Cl)CC1)c1cccc(OCCN2CCOCC2)c1` (stereo not drawn) [Compound 61], the inhibition at 1 µM in experiment [2] (Oryctolagus cuniculus) stood at 63%. Moreover, 0.05 µM produced 64% inhibition in experiment [3] (@ 0.05 μM).

As for `COc1ccc(CC2(NC(=O)C(Cl)(Cl)Cl)C=C(CN(C(=O)c3ccc(F)cc3)c3cccc(OCCN4CCOCC4)c3)CC2)cc1` (stereo not drawn) [Compound 65], in experiment [2] (Oryctolagus cuniculus), at 1 µM the inhibition was 72%. The IC50 in experiment [3] (read-out: IC50) is 56 nM.

In turn, `CN(C)CCSc1ccc(NCC2=CC(Cc3ccccc3)(NC(=O)C(Cl)(Cl)Cl)CC2)cc1` (stereo not drawn) [Compound 56] came in with an inhibition at 2 µM in experiment [2] (Oryctolagus cuniculus) of 24%. For the same compound, the IC50 in experiment [3] (read-out: IC50 (unit inferred)) is 1500 nM.

Take `CCN(CC)CCSc1ccc(NCC2=CC(Cc3ccccc3)(NC(=O)C(Cl)(Cl)Cl)CC2)cc1` (stereo not drawn) [Compound 58]: the inhibition at 2 µM in experiment [2] (Oryctolagus cuniculus) turned out to be 44%. Also, the IC50 in experiment [3] (read-out: IC50 (unit inferred)) is 1800 nM.

In the case of `O=C(c1ccc(F)cc1)N(CC1=CC(Cc2ccccc2)(NC(=O)C(Cl)(Cl)Cl)CC1)c1cccc(OCCN2CCOCC2)c1` (stereo not drawn) [Compound 59], at 3 µM the inhibition in experiment [2] (Oryctolagus cuniculus, @ 3.0 μM) was 54%. The IC50 in experiment [3] (read-out: IC50) turned out to be 52 nM.

On to `O=C(Nc1cccc(F)c1)N(CC1=CC(Cc2ccccc2)(NC(=O)C(Cl)(Cl)Cl)CC1)c1cccc(OCCN2CCOCC2)c1` (stereo not drawn) [Compound 63], for which 1 µM produced 63.8% inhibition in experiment [2] (Oryctolagus cuniculus). For the same compound, the IC50 in experiment [3] (read-out: IC50) was 37 nM.

Take `COc1ccc(CC2(NC(=O)C(Cl)(Cl)Cl)C=C(CN(C(=O)c3ccccc3)c3cccc(OCCN4CCOCC4)c3)CC2)cc1` (stereo not drawn) [Compound 66]: in experiment [2] (Oryctolagus cuniculus), testing at 1 µM gave an inhibition of 58%. In addition, the IC50 in experiment [3] (read-out: IC50) turned out to be 56 nM.

Consider `CCN(CC)CCN(CC1=CC(Cc2ccccc2)(NC(=O)C(Cl)(Cl)Cl)CC1)c1cccc(OCCN2CCOCC2)c1` (stereo not drawn) [Compound 53], for which the figures for the IC50 in experiment [2] (setting [6]) and in experiment [3] (read-out: IC50 (unit inferred)) were 3930 nM and 300 nM, respectively.

As usually defined, the inhibition is the share of the control response that was lost under treatment. Read a low inhibition as a response near the control. One may read the IC50 as the concentration needed to halve the response being measured.
